# Structures can show the parent of a compound that is named as a salt.
# Tests used:
# [1] = target: T1, Serotonin 2-Receptor (Rattus norvegicus, UniProt P14842); test: Antagonistic activity on serotonin 2-receptor: inhibition of the serotonin-induced increase in blood pressure in anesthetized rats; format: in vivo; settings: SD-SLC male rat, 10 mg/kg p.o., inhibition of blood pressure increase by serotonin 300 μg/kg i.v.
# T1 construct: from tissue; host or cells: intact anesthetized SD-SLC male rat (vascular response)
# T1 sequence (P14842 whole entry): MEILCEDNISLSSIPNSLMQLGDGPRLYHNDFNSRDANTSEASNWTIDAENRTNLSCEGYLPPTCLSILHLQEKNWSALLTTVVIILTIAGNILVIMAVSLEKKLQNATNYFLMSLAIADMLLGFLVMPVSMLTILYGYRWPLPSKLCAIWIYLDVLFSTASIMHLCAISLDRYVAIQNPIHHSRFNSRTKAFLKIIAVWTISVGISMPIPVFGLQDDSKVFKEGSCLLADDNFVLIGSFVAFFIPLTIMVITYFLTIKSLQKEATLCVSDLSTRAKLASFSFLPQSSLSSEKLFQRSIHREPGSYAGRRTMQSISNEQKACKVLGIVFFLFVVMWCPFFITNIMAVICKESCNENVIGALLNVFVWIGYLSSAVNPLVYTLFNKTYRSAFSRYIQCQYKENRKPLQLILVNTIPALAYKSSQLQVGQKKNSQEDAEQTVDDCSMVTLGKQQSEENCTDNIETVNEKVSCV
# Method: A test compound dissolved in purified water was orally administered to an SD-SLC male rat at a dose of 10 mg/kg. After 30 minutes from the administration, the rat was anesthetized with urethane (1 g/kg, i.p.) and α-Chloralose (80 mg/kg, i.p.). A polyethylene cannula was inserted into the carotid artery, and the blood pressure was recorded on a polygraph by using a pressure transducer. After 60 minutes or 180 minutes from the administration of the test compound, 300 μg/kg of serotonin was intravenously injected, and an increase in blood pressure was observed. Serotonin 2 (hereinafter referred to as […]) antagonistic activity of the test compound was calculated as a percentage of inhibition of an increase in blood pressure induced by […]. The inhibitory effect of the test compound wa compared with that of vehicle solution treated group.
# [2] = test system: Sympathetic Nerve α1 -Receptor; test: Antagonistic activity on sympathetic nerve α1-receptor: inhibition of the phenylephrine-induced increase in blood pressure in anesthetized rats; format: in vivo; settings: SD-SLC male rat, 10 mg/kg p.o.; after 60 minutes from the administration; inhibition of blood pressure increase by phenylephrine 100 μg/kg i.v.
# Method: A test compound dissolved in purified water was orally administered to an SD-SLC male rat at a dose of 10 mg/kg. After 30 minutes from the administration, the rat was anesthetized with urethane (1 g/kg, i.p.) and α-Chloralose (80 mg/kg, i.p.). A polyethylene cannula was inserted into the carotid artery, and the blood pressure was recorded on a polygraph by using a pressure transducer. After 60 minutes from the administration of the test compound, 100 μg/kg of phenylephrine was intravenously injected to observe an increase in blood pressure. Sympathetic nerve α1 -receptor antagonistic activity of the test compound was calculated as a percentage of inhibition of an increase in blood pressure induced by phenylephrine. The inhibitory effect of the test compound was compared with that of vehicle solution treated group.
# [3] = test system: ddy male mice; test: Toxicity in mice, repeated oral administration; format: in vivo, mouse
# Method: A test compound dissolved or suspended in a 1% methyl cellulose solution was orally administered to ddy male mice (4 or 5 mice per group) at a dose of 200 mg/kg once a day for consecutive 4 days. The number of dead animals per group was counted on the day next to the final administration day. As a control, 10 mλ/kg of 1% methyl cellulose solution was orally administered.
# [4] = test system: Mongrel dogs; test: Acute cardiac infarction model: LDA ligature and reperfusion in dogs; format: in vivo; settings: dog, 1 mg/kg/hr intravenous drip, mean ± S.E.M.
# Method: Mongrel dogs (body weight: 8 to 20 kg) under anesthesia were ventilated artificially and underwent a left thracotomy. […] A polyethylene cannula was inserted into the femoral artery, and the blood pressure and heart rate were recorded A cannula was inserted into the […] of a drug and also into the carotid artery from which a blood sample was to be taken. After stabilization period of the test preparation, LDA was ligated with a clamp. After 2 hours from the ligature, the clamp was released for reperfusion. After observation for the following 4 hours, the heart was excised. […] Then, the heart was washed and sliced at 1 cm intervals from the apex in the direction vertical to the longer axis. Each slice at the left ventricle was divided into a part which was in risk of cardiac infarction indicated by Evans' Blue stain (hereinafter referred to as risk area) and a normal area, and each area was weighed. The weight of the left ventricle (the sum of the risk area and the normal area) and that of the risk area of each slice were individually added up to obtain the weight of the whole left ventricle and the total weight of the risk area. Further, of each slice, the area of the risk area which was not stained with Evans' Blue and that of a cardiac infarction area within the risk area which remained white, i.e., which was stained neither in blue with Evans' Blue nor in red with triphenyltetrazolium chloride, were measured to obtain a ratio of cardiac infarction part to the whole left ventricle (infarction size). […] The experiment was conducted for the following groups.
# [5] = test system: Mongrel dogs; test: Angina pectoris model: partial LDA occlusion with cyclic coronary flow reduction in dogs; format: in vivo; settings: dog, 0.1 mg/kg i.v. (maleate); mean ± S.E.M.; before admin. 9.9 ± 2.5
# Method: Mongrel dogs (body weight: 8 to 20 kg) under anesthesia with pentobarbital (30 mg/kg, i.v.) were ventilated artificially and underwent a left thoracotomy. LDA was separated from connected tissues. A silicone tube for partial occlusion was placed around the LDA, and a probe for blood flow rate measurement was fixed in the neighborhood. The blood flow rate was measured with a pulse Doppler blood flow meter. A cannula was inserted into a branch distal to the occlusion site of the left coronary artery, and the coronary blood pressure was measured. A polyethylene cannula was inserted into the femoral artery, and the systemic blood pressure and heart rate were recorded. A cannula was inserted to the femoral vein for administration of a drug.
# The effect of the drug was expressed in terms of frequency of the periodic reduction of blood flow rate.
# [6] = test system: rats; test: Toxicity in rats, oral administration for 10 days; format: in vivo, rat; settings: 5 test animals
# [7] = test system: Sympathetic Nerve α1 -Receptor; test: Antagonistic activity on sympathetic nerve α1-receptor: inhibition of the phenylephrine-induced increase in blood pressure in anesthetized rats; format: in vivo; settings: SD-SLC male rat, 10 mg/kg p.o.; after 180 minutes from the administration; inhibition of blood pressure increase by phenylephrine 100 μg/kg i.v.
# [8] = after 60 minutes from the administration
# [9] = ddy male mice, 200 mg/kg p.o. once a day for consecutive 4 days, dead animals per group
Structure (SMILES),"Antagonistic Activity 5-HT2 (%) [1, 8] [%]",Antagonistic Activity α1 (%) [2] [%],"Toxicity (Death Rate) [3, 9]",further results
"O=C(O)/C=C\C(=O)O.O=C(c1ccc(F)cc1)[C@@H]1CCN(CCn2nc3n(c2=O)CCCC3)C[C@H]1c1ccc(F)cc1 (relative stereo) [Example 67, 2-[2-[trans-3-(4-Fluorophenyl)-4-(4-fluorobenzoyl)piperidin-1-yl]ethyl]-5,6,7,8-tetrahydro-3H-1,2,4-triazolo[4,3-a]pyridin-3(2H)-one Maleate]",90,4,,
"Cl.O=C(c1ccc(F)cc1)C1CCN(CCn2c(=O)nc3n(c2=O)CCCC3)CC1 [Example 2, 3-[2-[4-(4-Fluorobenzoyl)piperidin-1-yl]ethyl]-6,7,8,9-tetrahydro-2H-pyrido[1,2-a]-1,3,5-triazine-2,4(3H)-dione Hydrochloride]",93,9,1/5,"Myocardial Blood Flow ([4]; after 2 h ligature and reperfusion, control 62 ± 9): 89 ± 14 ml/min/100 g; Infarction Size (%) ([4]; ratio of cardiac infarction part to the whole left ventricle, control 30 ± 7): 11 ± 3%"
"O=C(c1ccc(F)cc1)C1CCN(CCn2c(=O)nc3n(c2=O)CCCC3)CC1 [Example 3, 3-[2-[4-(4-Fluorobenzoyl)piperidin-1-yl]ethyl]-6,7,8,9-tetrahydro-2H-pyrido1,2-a]-1,3,5-triazine-2,4(3H)-dione Maleate]",93,39,0/5,"Frequency of Periodic Reduction in Blood Flow Rate, After Admin. [5]: 2.3 ± 1.2; Number of Dead Animals ([6]; 50 mg/kg (p.o.)): 0; Number of Dead Animals ([6]; 200 mg/kg (p.o.)): 0; Number of Dead Animals ([6]; 800 mg/kg (p.o.)): 0"
"O=C(c1ccc(F)cc1)C1(O)CCN(CCn2c(=O)nc3n(c2=O)CCCC3)CC1 [Example 11, 3-[2-[4-(4-Fluorobenzoyl)-4-hydroxy-piperidin-1-yl]ethyl]-6,7,8,9-tetrahydro-2H-pyrido[1,2-a-]-1,3,5-triazine-2,4(3H)-dione Dihydrochloride Hemihydrate]",83,0,,
"Cl.Cl.O=c1nc2n(c(=O)n1CCN1CCC(=C(c3ccc(F)cc3)c3ccc(F)cc3)CC1)CCCC2 [Example 18, 3-[2-[4-[Bis(4-fluorophenyl)methylene]-piperidin-1-yl]ethyl]-6,7,8,9-tetrahydro-2H-pyrido-[1,2-a]-1,3,5-triazine-2,4(3H)-dione Dihydrochloride]",93,6,0/5,
"Cl.Cl.O=c1nc2n(c(=O)n1CCN1CCC(=C(c3ccc(F)cc3)c3ccc(F)cc3)CC1)CCC2 [Example 20, 3-[2-[4-[Bis(4-fluorophenyl)methylene]-piperidin-1-yl]ethyl]-7,8-dihydro-2H,6H-pyrrolo[1,2-a]-1,3,5-triazine-2,4(3H)-dione Dihydrochloride]",83,1,,
"O=c1nc2sccn2c(=O)n1CCN1CCC(=C(c2ccc(F)cc2)c2ccc(F)cc2)CC1 [Example 21, 3-[2-[4-[Bis(4-fluorophenyl)methylene]piperidin-1-yl]ethyl]-2H-thiazolo-[3.2-a]-1,3,5-triazine-2,4(3H)-dione Hydrochloride]",93,3,,
"O=c1n(CCN2CCC(=C(c3ccc(F)cc3)c3ccc(F)cc3)CC2)nc2n1CCCCC2 [Example 34, 2-[2-[4-[Bis(4-fluorophenyl)methylene]piperidin-1-yl]ethyl]-2,5,6,7,8,9-hexahydro-3H-1,2,4-triazolo[4,3-a]azepin-3-one Hydrochloride Hemihydrate]",90,3,1/4,
"CCO.Cl.O=c1n(CCN2CCC(=C(c3ccccc3)c3ccc(F)cc3)CC2)nc2n1CCCCC2 [Example 36, 2-[2-[4-[(4-Fluorophenyl)(phenyl)methylene]piperidin-1-yl]ethyl]-2,5,6,7,8,9-hexahydro-3H-1,2,4-triazolo[4,3-a]azepin-3-one Hydrochloride Ethanolate]",84,3,0/5,
"O=c1n(CCN2CCC(=C(c3ccc(F)cc3)c3ccc(F)cc3)CC2)nc2n1CCCO2 [Example 44, 2-[2-[4-Bis(4-fluorophenyl)methylene]piperidin-1-yl]ethyl]-6,7-dihydro-5H-1,2,4-triazolo[3.4-b1-1,3-oxazin-3(2H)-one Hydrochloride Hemihydrate]",89,2,2/5,
"O=C(c1ccc(F)cc1)C1CCN(CCn2nc3ccccn3c2=O)CC1 [Example 49, 2-[2-[4-(4-Fluorobenzoyl)piperidin-1-yl]ethyl]-1,2,4-triazolo[4,3-a]-pyridin-3(2H)-one Hydrochloride Hemihydrate]",,,0/5,Antagonistic Activity 5-HT2 (%) ([1]; after 180 minutes from the administration): 82%; Antagonistic Activity α1 (%) [7]: 3%
"Cl.O=C(c1ccc(F)cc1)C1CCN(CCn2nc3n(c2=O)CCCC3)CC1 [Example 51, 2-[2-[4-(4-Fluorobenzoyl)piperidin-1-yl]ethyl]-5,6,7,8-tetrahydro-1,2,4-triazolo[4,3-a]-pyridin-3(2H)-one Hydrochloride]",95,3,0/5,
"Cl.O=C(c1ccc(F)cc1)C1(O)CCN(CCn2nc3n(c2=O)CCCC3)CC1 [Example 63, 2-[2-[4-(4-Fluorobenzoyl)-4-hydroxypiperidin-1-yl]ethyl]-5,6,7,8-tetrahydro-1,2,4-triazolo[4,3-a]pyridin-3(2H)-one Hydrochloride]",85,0,,
"O=C(c1ccc(Cl)cc1)C1CCN(CCn2nc3n(c2=O)CCCC3)CC1 [Example 75, 2-[2-[4-(4-Chlorobenzoyl)piperidin-1-yl]ethyl]-5,6,7,8-tetrahydro-1,2,4-triazolo[4,3-a]pyridin-3(2H)-one Hydrochloride]",83,17,0/3,
"O=C(c1ccc(F)cc1)C1CCN(CCn2c(=O)[nH]c3ccccc3c2=O)CC1 [Ketanserin, reference compound]",96,73,,"Toxicity (Death Rate) ([3]; mouse, in vivo, po, 200 mg/kg): 5/5"
"Cc1nc2sccn2c(=O)c1CCN1CCC(=C(c2ccc(F)cc2)c2ccc(F)cc2)CC1 [Ritanserin, reference compound]",84,5,3/5,

# From US5232924A, “Heterocyclic compound having serotonine 2-receptor antagonistic activity” (Daiichi Pharmaceutical Co., Ltd., priority 1989, dated 1993)
